Results on four molecules are retold here after patent US11965039B2, “Compstatin analogues and their medical uses” (priority 2018, dated 2024).

Data set [1] deals with alternative complement pathway. The data set can be described thus: Ex vivo alternative pathway complement activity (WIESLAB kit) after s.c. dosing in non-human primates. Set-up: species or system Cynomolgus monkeys (Macaca fascicularis). Particulars: NHP, subcutaneous 1840 nmol/kg, FIG. 1a-f. As for the experimental part:
FIG. 1(a-f): Normalized “ex vivo” activity of the alternative complement pathway over time after administration of a test compound at time 0 to one or two non-human primates. Compounds were given subcutaneously at a dose of 1840 nmol/kg. Complement activity (alternative pathway) was measured using the Wieslab kit. Activity was normalized using the predose (0) sample (set to 100%) and the negative control included in the kit. Normalized activity or average normalized activity for both animals and standard deviation is shown.
Healthy male Cynomolgus monkeys (Macaca fascicularis) received single subcutaneous administrations of each test substance. Compounds were formulated in 20 mM phosphate adjusted with NaOH to pH 7.5 and mannitol for isotonicity and dosed at 1840 nmol/kg. Blood was collected from a femoral vein from each animal at the following times: Pre-dose, 1, 2, 4, 8, 24, 48, 72, 96 and 120 h (10 sampling times). Blood was collected into serum separation tubes and allowed to clot at room temperature. The tubes were centrifuged and resulting serum was aliquoted and snap-frozen over dry-ice and stored at nominally −80° C. until analysis. All NHP studies were performed in accordance with animal welfare laws and regulations, including approval of the study by a local ethical review process.
Serum isolated from non-human primates at specific time points after dosing were analyzed for alternative pathway complement activity using the Complement system Alternative Pathway WIESLAB® kit from Svar Life Science (previously Euro diagnostic AB, Sweden) following the manufacturer's protocol. Briefly, serum samples or controls were diluted in buffer and incubated in microtitre strips coated with specific activators of the alternative pathway. The wells were washed and formed C5b-9 was detected using included colorimetric reagents. Absorbance at 405 nm was measured. The percent activity of the alternative complement pathway was calculated for each animal and timepoint relative to the pre-dose activity (0 hours) of the individual animal with subtraction of the negative control. […]

In data set [2] the test system is classical complement pathway. The data set can be described thus: In vitro haemolysis assay (inhibition of classical complement pathway). It counts as cell-based, human. The conditions noted are these: human serum, sensitized sheep red blood cells; Table 3, given as upper bounds; read-out: IC50, inhibition of hemolysis. Put shortly:
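Compound dilutions preincubated 15 min at room temperature with diluted human serum (titrated per batch for 70-90% maximal haemolysis), then antibody-sensitized sheep RBC (10^7/well) added for 30 min at 37 °C in Tris/casein buffer, pH 7.4. Stopped with EDTA; haemolysis read at 405 nm; IC50 by 4PL fit.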

Data set [3] is described as follows: Solubility test at 10 mg/mL (visual inspection and light scattering). It counts as physicochemical. The conditions noted are these: for Solubility, Condition 1: Acetate pH 4; for Solubility, Condition 2: Acetate pH 5; for Solubility, Condition 3: Phosphate pH 6; for Solubility, Condition 4: Phosphate pH 7; for Solubility, Condition 5: Phosphate pH 7.5.
Data set [4] addresses T1, Human C3 (Complement tech cat #A113c) (human, UniProt P01024 23-1663). The data set can be described thus: cell-based or functional assay.
Data set [5] concerns the target T1, Human C3 (Complement tech cat #A113c). The data set can be described thus: cell-based or functional assay. This is another data set of the same source.

Positions of bridges follow the written chain, without caps; N, C: chain ends. Non-standard residues stand in square brackets, D forms with d. Residues, ends and D or L forms follow the SMILES beside them. Trp(1-Me) = Cn1cc(C[C@H](N)C(=O)O)c2ccccc21; Sar = CNCC(=O)O Some results are limits rather than exact numbers.

T1 sequence (P01024 23-1663 limits assumed): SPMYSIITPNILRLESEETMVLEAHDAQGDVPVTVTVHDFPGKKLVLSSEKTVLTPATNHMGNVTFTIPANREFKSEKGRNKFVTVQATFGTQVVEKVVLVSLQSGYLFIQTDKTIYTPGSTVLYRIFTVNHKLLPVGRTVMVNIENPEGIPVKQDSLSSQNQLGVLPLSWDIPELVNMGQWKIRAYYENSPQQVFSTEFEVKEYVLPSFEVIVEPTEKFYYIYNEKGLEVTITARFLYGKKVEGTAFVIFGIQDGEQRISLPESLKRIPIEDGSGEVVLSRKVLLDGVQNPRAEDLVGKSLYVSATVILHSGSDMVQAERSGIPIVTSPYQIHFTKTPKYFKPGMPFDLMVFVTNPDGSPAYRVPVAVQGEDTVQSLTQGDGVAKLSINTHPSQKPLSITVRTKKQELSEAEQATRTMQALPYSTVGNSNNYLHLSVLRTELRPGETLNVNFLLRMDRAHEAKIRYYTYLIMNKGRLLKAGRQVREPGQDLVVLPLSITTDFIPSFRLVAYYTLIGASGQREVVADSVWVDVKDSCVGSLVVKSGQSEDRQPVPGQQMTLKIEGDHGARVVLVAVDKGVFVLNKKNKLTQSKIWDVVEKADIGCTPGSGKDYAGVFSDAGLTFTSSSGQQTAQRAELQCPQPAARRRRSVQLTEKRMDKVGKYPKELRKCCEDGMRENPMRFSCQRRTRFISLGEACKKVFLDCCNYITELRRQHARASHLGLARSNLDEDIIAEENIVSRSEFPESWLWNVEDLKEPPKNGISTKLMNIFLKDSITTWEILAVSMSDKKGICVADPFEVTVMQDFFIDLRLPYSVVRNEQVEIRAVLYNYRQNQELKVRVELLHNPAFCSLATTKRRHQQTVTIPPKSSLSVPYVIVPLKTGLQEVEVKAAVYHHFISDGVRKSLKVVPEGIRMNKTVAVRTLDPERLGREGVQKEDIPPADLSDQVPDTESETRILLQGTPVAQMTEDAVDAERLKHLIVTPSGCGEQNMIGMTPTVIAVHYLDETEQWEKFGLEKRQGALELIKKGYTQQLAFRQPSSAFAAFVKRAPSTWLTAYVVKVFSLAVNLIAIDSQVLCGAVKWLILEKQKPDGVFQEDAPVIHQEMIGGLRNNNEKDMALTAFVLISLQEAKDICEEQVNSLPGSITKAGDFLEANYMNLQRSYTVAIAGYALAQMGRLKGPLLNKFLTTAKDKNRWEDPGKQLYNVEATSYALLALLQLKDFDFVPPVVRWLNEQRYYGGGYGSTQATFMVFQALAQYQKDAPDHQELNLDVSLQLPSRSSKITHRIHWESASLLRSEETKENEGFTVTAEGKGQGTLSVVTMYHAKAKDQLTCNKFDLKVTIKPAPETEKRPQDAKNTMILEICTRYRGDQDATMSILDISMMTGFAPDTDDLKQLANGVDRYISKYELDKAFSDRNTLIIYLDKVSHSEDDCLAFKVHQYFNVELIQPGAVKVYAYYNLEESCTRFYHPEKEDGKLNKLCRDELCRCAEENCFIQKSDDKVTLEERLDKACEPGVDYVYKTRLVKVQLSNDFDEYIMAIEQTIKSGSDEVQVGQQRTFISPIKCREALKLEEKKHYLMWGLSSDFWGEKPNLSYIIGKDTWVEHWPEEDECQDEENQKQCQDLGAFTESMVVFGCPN

The IC50 is the concentration needed to halve the response being measured. For `CC[C@H](C)[C@H](NC(=O)[C@H](N)Cc1ccc(O)cc1)C(=O)N[C@H]1CSSC[C@@H](C(=O)N(C)[C@H](C(N)=O)[C@@H](C)CC)NC(=O)[C@H](CCCNC(=N)N)NC(=O)[C@H](Cc2c[nH]cn2)NC(=O)[C@H](C)NC(=O)CN(C)C(=O)[C@H](Cc2c[nH]c3ccccc23)NC(=O)[C@H](CC(=O)O)NC(=O)[C@H](CCC(N)=O)NC(=O)[C@H](Cc2cn(C)c3ccccc23)NC(=O)[C@H](C(C)C)NC1=O` [Cp40, H-{d}YIC(1)V[1-Me-Trp]QDW[Sar]AHRC(1)[N-Me-Ile]-NH2, reference compound], in data set [1], the “duration of action (alternative pathway complement activity)” value (shortened to “duration of action”) is given as “relatively short duration of action”. Moreover, the IC50 in data set [2] is less than 100 nM.

As for `CC[C@H](C)[C@@H]1NC(=O)[C@@H](NC(=O)[C@H](Cc2ccccc2)NC(C)=O)CSSC[C@@H](C(=O)N[C@H](C(=O)NCC(=O)N[C@@H](C)C(=O)N[C@@H](CCC(=O)O)C(=O)N[C@@H](CO)C(N)=O)[C@@H](C)O)NC(=O)[C@H](CCCNC(=N)N)NC(=O)[C@H](Cc2c[nH]cn2)NC(=O)[C@H](CCC(=O)O)NC(=O)CNC(=O)[C@H](Cc2c[nH]c3ccccc23)NC(=O)[C@H](CC(=O)O)NC(=O)[C@H](CCC(N)=O)NC(=O)[C@H](Cc2cn(C)c3ccccc23)NC1=O` [Compound 61] (Ac-FCI[Trp(1-Me)]QDWGEHRCTGAES-NH2; disulfide 2-12), in data set [3], the “Solubility, Condition 1” value is “− (“−” denotes lack of solubility at the given condition, as UV absorbance at 340 nm exceeds 0.1 AU and/or it is visibly turbid or contains particles)”; the “Solubility, Condition 2” value is reported as “− (“−” denotes lack of solubility at the given condition, as UV absorbance at 340 nm exceeds 0.1 AU and/or it is visibly turbid or contains particles)”; the “Solubility, Condition 3” value was “+ (“+” denotes solubility at the given condition, as determined by UV absorbance being less than 0.1 AU at 340 nm and the sample being clear when manually inspected)”; the “Solubility, Condition 4” value is “+ (“+” denotes solubility at the given condition, as determined by UV absorbance being less than 0.1 AU at 340 nm and the sample being clear when manually inspected)”. For the same molecule, the “Solubility, Condition 5” value in data set [3] is “+ (“+” denotes solubility at the given condition, as determined by UV absorbance being less than 0.1 AU at 340 nm and the sample being clear when manually inspected)”. Besides, the “duration of action” value in data set [1] was “relatively short duration of action”. In data set [2], the IC50 was less than 100 nM.

On to `CC[C@H](C)[C@@H]1NC(=O)[C@@H](NC(=O)[C@H](Cc2ccc(O)cc2)NC(=O)[C@H](C)NC(=O)[C@H](CO)NC(=O)CNC(=O)[C@H](CCC(=O)O)NC(C)=O)CSSC[C@@H](C(=O)N(C)CC(=O)N[C@@H](CCC(=O)O)C(N)=O)NC(=O)[C@H](CCCNC(=N)N)NC(=O)[C@H](Cc2c[nH]cn2)NC(=O)[C@H](CCC(=O)O)NC(=O)CNC(=O)[C@H](Cc2c[nH]c3ccccc23)NC(=O)[C@H](CC(=O)O)NC(=O)[C@H](CCC(N)=O)NC(=O)[C@H](Cc2cn(C)c3ccccc23)NC1=O` [Compound 54] (Ac-EGSAYCI[Trp(1-Me)]QDWGEHRC[Sar]E-NH2; disulfide 6-16), for which, in data set [3], the “Solubility, Condition 1” value was “− (“−” denotes lack of solubility at the given condition, as UV absorbance at 340 nm exceeds 0.1 AU and/or it is visibly turbid or contains particles)”; the “Solubility, Condition 2” value is “− (“−” denotes lack of solubility at the given condition, as UV absorbance at 340 nm exceeds 0.1 AU and/or it is visibly turbid or contains particles)”; the “Solubility, Condition 3” value was “+ (“+” denotes solubility at the given condition, as determined by UV absorbance being less than 0.1 AU at 340 nm and the sample being clear when manually inspected)”; the “Solubility, Condition 4” value was “+ (“+” denotes solubility at the given condition, as determined by UV absorbance being less than 0.1 AU at 340 nm and the sample being clear when manually inspected)”. Besides, in data set [3], the “Solubility, Condition 5” value is “+ (“+” denotes solubility at the given condition, as determined by UV absorbance being less than 0.1 AU at 340 nm and the sample being clear when manually inspected)”. Besides, in data set [1], the “duration of action” value is listed as “relatively short duration of action”. In addition, in data set [2], the IC50 is less than 100 nM.

B1: Compound 1 (peptide)
peptide: Ac-ICIWQDWGAHRCT-NH2
modifications: disulfide 2-12
SMILES: CC[C@H](C)[C@H](NC(C)=O)C(=O)N[C@H]1CSSC[C@@H](C(=O)N[C@H](C(N)=O)[C@@H](C)O)NC(=O)[C@H](CCCNC(=N)N)NC(=O)[C@H](Cc2c[nH]cn2)NC(=O)[C@H](C)NC(=O)CNC(=O)[C@H](Cc2c[nH]c3ccccc23)NC(=O)[C@H](CC(=O)O)NC(=O)[C@H](CCC(N)=O)NC(=O)[C@H](Cc2c[nH]c3ccccc23)NC(=O)[C@H]([C@@H](C)CC)NC1=O
As for B1, the “inhibition of hemolysis IC50” value in data set [4] was less than 250 nM. Moreover, in data set [5], the “CP hemolysis IC50” value stood at 150 nM.
